Measurements reported in PubChem BioAssay (NCI).
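Test compounds were applied to cells in 96-well plates for 48 hours at 5 doses. At the TGI there is no net growth.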

Assays:
Experiment in all cases: NCI anticancer screen, dose series, 48 h
786-0 renal = test system: 786-0 renal
A498 renal = test system: A498 renal
A549 NSCLC = test system: A549 NSCLC
ACHN renal = test system: ACHN renal
BT-549 breast = test system: BT-549 breast
CAKI-1 renal = test system: CAKI-1 renal
COLO 205 colon = test system: COLO 205 colon
DU-145 prostate = test system: DU-145 prostate
EKVX NSCLC = test system: EKVX NSCLC
HCC-2998 colon = test system: HCC-2998 colon
HCT-116 colon = test system: HCT-116 colon
HCT-15 colon = test system: HCT-15 colon
HOP-62 NSCLC = test system: HOP-62 NSCLC
HOP-92 NSCLC = test system: HOP-92 NSCLC
HS 578T breast = test system: HS 578T breast
HT29 colon = test system: HT29 colon
IGROV1 ovarian = test system: IGROV1 ovarian
KM12 colon = test system: KM12 colon
LOX IMVI melanoma = test system: LOX IMVI melanoma
M14 melanoma = test system: M14 melanoma
MALME-3M melanoma = test system: MALME-3M melanoma
MCF7 breast = test system: MCF7 breast
MDA-MB-231 breast = test system: MDA-MB-231 breast
MDA-MB-435 = test system: MDA-MB-435
MDA-N = test system: MDA-N
MOLT-4 leukemia = test system: MOLT-4 leukemia
NCI-H226 lung = test system: NCI-H226 lung
NCI-H23 lung = test system: NCI-H23 lung
NCI-H460 lung = test system: NCI-H460 lung
NCI-H522 lung = test system: NCI-H522 lung
NCI/ADR-RES ovarian = test system: NCI/ADR-RES ovarian
OVCAR-3 ovarian = test system: OVCAR-3 ovarian
OVCAR-4 ovarian = test system: OVCAR-4 ovarian
OVCAR-5 ovarian = test system: OVCAR-5 ovarian
OVCAR-8 ovarian = test system: OVCAR-8 ovarian
PC-3 prostate = test system: PC-3 prostate
RPMI-8226 leukemia = test system: RPMI-8226 leukemia
RXF 393 renal = test system: RXF 393 renal
SF-268 CNS = test system: SF-268 CNS
SF-295 CNS = test system: SF-295 CNS
SF-539 CNS = test system: SF-539 CNS
SK-MEL-2 melanoma = test system: SK-MEL-2 melanoma
SK-MEL-28 melanoma = test system: SK-MEL-28 melanoma
SK-MEL-5 melanoma = test system: SK-MEL-5 melanoma
SK-OV-3 ovarian = test system: SK-OV-3 ovarian
SN12C renal = test system: SN12C renal
SNB-19 CNS = test system: SNB-19 CNS
SNB-75 CNS = test system: SNB-75 CNS
SW-620 colon = test system: SW-620 colon
T-47D breast = test system: T-47D breast
TK-10 renal = test system: TK-10 renal
U251 CNS = test system: U251 CNS
UACC-257 melanoma = test system: UACC-257 melanoma
UO-31 renal = test system: UO-31 renal
CCRF-CEM leukemia = test system: CCRF-CEM leukemia
HL-60(TB) leukemia = test system: HL-60(TB) leukemia
K-562 leukemia = test system: K-562 leukemia
UACC-62 melanoma = test system: UACC-62 melanoma

SMILES: COc1ccc2nc3cccc([N+](=O)[O-])c3c(NCCN(C)C)c2c1
- TGI (786-0 renal): 0.348 µM
- TGI (A498 renal): 0.347 µM
- TGI (A549 NSCLC): 0.279 µM
- TGI (ACHN renal): 0.357 µM
- TGI (BT-549 breast): 0.184 µM
- TGI (CAKI-1 renal): 0.746 µM
- TGI (COLO 205 colon): 0.107 µM
- TGI (DU-145 prostate): 0.0601 µM
- TGI (EKVX NSCLC): 0.397 µM
- TGI (HCC-2998 colon): 0.188 µM
- TGI (HCT-116 colon): 0.115 µM
- TGI (HCT-15 colon): 0.263 µM
- TGI (HOP-62 NSCLC): 0.323 µM
- TGI (HOP-92 NSCLC): 0.192 µM
- TGI (HS 578T breast): 0.518 µM
- TGI (HT29 colon): 0.441 µM
- TGI (IGROV1 ovarian): 0.39 µM
- TGI (KM12 colon): 0.449 µM
- TGI (LOX IMVI melanoma): 0.232 µM
- TGI (M14 melanoma): 0.218 µM
- TGI (MALME-3M melanoma): 0.213 µM
- TGI (MCF7 breast): 0.314 µM
- TGI (MDA-MB-231 breast): 0.357 µM
- TGI (MDA-MB-435): 0.208 µM
- TGI (MDA-N): 0.262 µM
- TGI (MOLT-4 leukemia): 0.491 µM
- TGI (NCI-H226 lung): 0.456 µM
- TGI (NCI-H23 lung): 0.362 µM
- TGI (NCI-H460 lung): 0.0672 µM
- TGI (NCI-H522 lung): 0.0487 µM
- TGI (NCI/ADR-RES ovarian): 0.373 µM
- TGI (OVCAR-3 ovarian): 0.312 µM
- TGI (OVCAR-4 ovarian): 0.271 µM
- TGI (OVCAR-5 ovarian): 0.437 µM
- TGI (OVCAR-8 ovarian): 0.251 µM
- TGI (PC-3 prostate): 0.268 µM
- TGI (RPMI-8226 leukemia): 0.393 µM
- TGI (RXF 393 renal): 0.23 µM
- TGI (SF-268 CNS): 0.546 µM
- TGI (SF-295 CNS): 1 µM
- TGI (SF-539 CNS): 0.297 µM
- TGI (SK-MEL-2 melanoma): 0.272 µM
- TGI (SK-MEL-28 melanoma): 0.31 µM
- TGI (SK-MEL-5 melanoma): 0.219 µM
- TGI (SK-OV-3 ovarian): 0.781 µM
- TGI (SN12C renal): 0.327 µM
- TGI (SNB-19 CNS): 0.829 µM
- TGI (SNB-75 CNS): 0.335 µM
- TGI (SW-620 colon): 0.756 µM
- TGI (T-47D breast): 0.408 µM
- TGI (TK-10 renal): 0.659 µM
- TGI (U251 CNS): 0.6 µM
- TGI (UACC-257 melanoma): 0.384 µM
- TGI (UO-31 renal): 0.413 µM

SMILES: CCCCCc1cc2cc3c(c(O)c2c(=O)[nH]1)C1(CC3)C(O)=c2c(=O)c3c(=O)cc(OC)c(=O)c=3c(=O)c2=C1O (stereo unspecified)
- TGI (786-0 renal): 2.91 µM
- TGI (A498 renal): 5.26 µM
- TGI (A549 NSCLC): 6.06 µM
- TGI (ACHN renal): 2.18 µM
- TGI (BT-549 breast): 3.6 µM
- TGI (CAKI-1 renal): 1.8 µM
- TGI (CCRF-CEM leukemia): 0.884 µM
- TGI (COLO 205 colon): 0.449 µM
- TGI (DU-145 prostate): 3.46 µM
- TGI (EKVX NSCLC): 3.36 µM
- TGI (HCC-2998 colon): 3.92 µM
- TGI (HCT-116 colon): 2.8 µM
- TGI (HCT-15 colon): 2.24 µM
- TGI (HL-60(TB) leukemia): 1.41 µM
- TGI (HOP-62 NSCLC): 12.8 µM
- TGI (HOP-92 NSCLC): 1.25 µM
- TGI (HS 578T breast): 15.3 µM
- TGI (HT29 colon): 2.9 µM
- TGI (IGROV1 ovarian): 4.4 µM
- TGI (K-562 leukemia): 2.29 µM
- TGI (KM12 colon): 5.4 µM
- TGI (LOX IMVI melanoma): 2.65 µM
- TGI (M14 melanoma): 3.22 µM
- TGI (MALME-3M melanoma): 2.54 µM
- TGI (MCF7 breast): 2.23 µM
- TGI (MDA-MB-231 breast): 2.16 µM
- TGI (MDA-MB-435): 3.93 µM
- TGI (MDA-N): 3.71 µM
- TGI (MOLT-4 leukemia): 4.48 µM
- TGI (NCI-H226 lung): 4.58 µM
- TGI (NCI-H23 lung): 2.77 µM
- TGI (NCI-H460 lung): 3.35 µM
- TGI (NCI-H522 lung): 1.69 µM
- TGI (NCI/ADR-RES ovarian): 7.35 µM
- TGI (OVCAR-3 ovarian): 1.93 µM
- TGI (OVCAR-4 ovarian): 3.02 µM
- TGI (OVCAR-5 ovarian): 5.86 µM
- TGI (OVCAR-8 ovarian): 3.26 µM
- TGI (PC-3 prostate): 2.24 µM
- TGI (RPMI-8226 leukemia): 2.42 µM
- TGI (RXF 393 renal): 3.55 µM
- TGI (SF-268 CNS): 3.56 µM
- TGI (SF-295 CNS): 18.7 µM
- TGI (SK-MEL-2 melanoma): 3.3 µM
- TGI (SK-MEL-28 melanoma): 4.26 µM
- TGI (SK-MEL-5 melanoma): 2.22 µM
- TGI (SK-OV-3 ovarian): 9.96 µM
- TGI (SN12C renal): 3.42 µM
- TGI (SNB-19 CNS): 3.74 µM
- TGI (SNB-75 CNS): 4.68 µM
- TGI (SW-620 colon): 3.31 µM
- TGI (T-47D breast): 3.58 µM
- TGI (U251 CNS): 2.75 µM
- TGI (UACC-257 melanoma): 2.14 µM
- TGI (UACC-62 melanoma): 4.82 µM
- TGI (UO-31 renal): 2.38 µM

SMILES: CC1=C(C(=O)NNC(=O)c2ccccc2)CC(C(=O)NNC(=O)c2ccccc2)=C(C)N1
- TGI (786-0 renal): > 100 µM
- TGI (A498 renal): > 100 µM
- TGI (A549 NSCLC): > 100 µM
- TGI (ACHN renal): > 100 µM
- TGI (BT-549 breast): > 100 µM
- TGI (CAKI-1 renal): > 100 µM
- TGI (CCRF-CEM leukemia): > 100 µM
- TGI (COLO 205 colon): > 100 µM
- TGI (DU-145 prostate): > 100 µM
- TGI (EKVX NSCLC): > 100 µM
- TGI (HCC-2998 colon): > 100 µM
- TGI (HCT-116 colon): > 100 µM
- TGI (HCT-15 colon): > 100 µM
- TGI (HL-60(TB) leukemia): > 100 µM
- TGI (HOP-62 NSCLC): > 100 µM
- TGI (HOP-92 NSCLC): > 100 µM
- TGI (HS 578T breast): > 100 µM
- TGI (HT29 colon): > 100 µM
- TGI (IGROV1 ovarian): > 100 µM
- TGI (K-562 leukemia): > 100 µM
- TGI (KM12 colon): > 100 µM
- TGI (LOX IMVI melanoma): > 100 µM
- TGI (M14 melanoma): > 100 µM
- TGI (MCF7 breast): > 100 µM
- TGI (MDA-MB-231 breast): > 100 µM
- TGI (MDA-MB-435): > 100 µM
- TGI (MDA-N): > 100 µM
- TGI (MOLT-4 leukemia): > 100 µM
- TGI (NCI-H226 lung): > 100 µM
- TGI (NCI-H23 lung): > 100 µM
- TGI (NCI-H460 lung): > 100 µM
- TGI (NCI-H522 lung): > 100 µM
- TGI (NCI/ADR-RES ovarian): > 100 µM
- TGI (OVCAR-3 ovarian): > 100 µM
- TGI (OVCAR-4 ovarian): > 100 µM
- TGI (OVCAR-5 ovarian): > 100 µM
- TGI (OVCAR-8 ovarian): > 100 µM
- TGI (PC-3 prostate): > 100 µM
- TGI (RPMI-8226 leukemia): > 100 µM
- TGI (RXF 393 renal): > 100 µM
- TGI (SF-268 CNS): > 100 µM
- TGI (SF-295 CNS): > 100 µM
- TGI (SF-539 CNS): > 100 µM
- TGI (SK-MEL-2 melanoma): > 100 µM
- TGI (SK-MEL-28 melanoma): > 100 µM
- TGI (SK-MEL-5 melanoma): > 100 µM
- TGI (SK-OV-3 ovarian): > 100 µM
- TGI (SN12C renal): > 100 µM
- TGI (SNB-19 CNS): > 100 µM
- TGI (SW-620 colon): > 100 µM
- TGI (T-47D breast): > 100 µM
- TGI (TK-10 renal): > 100 µM
- TGI (U251 CNS): > 100 µM
- TGI (UACC-257 melanoma): > 100 µM
- TGI (UACC-62 melanoma): > 100 µM
- TGI (UO-31 renal): > 100 µM
